For assay [1], the target named is T1, recombinant guanylate cyclase reporter cell line (Rattus norvegicus, UniProt P19686+P20595).
T1 construct: expressed in transfected cells
T1 sequence (P19686 1-690): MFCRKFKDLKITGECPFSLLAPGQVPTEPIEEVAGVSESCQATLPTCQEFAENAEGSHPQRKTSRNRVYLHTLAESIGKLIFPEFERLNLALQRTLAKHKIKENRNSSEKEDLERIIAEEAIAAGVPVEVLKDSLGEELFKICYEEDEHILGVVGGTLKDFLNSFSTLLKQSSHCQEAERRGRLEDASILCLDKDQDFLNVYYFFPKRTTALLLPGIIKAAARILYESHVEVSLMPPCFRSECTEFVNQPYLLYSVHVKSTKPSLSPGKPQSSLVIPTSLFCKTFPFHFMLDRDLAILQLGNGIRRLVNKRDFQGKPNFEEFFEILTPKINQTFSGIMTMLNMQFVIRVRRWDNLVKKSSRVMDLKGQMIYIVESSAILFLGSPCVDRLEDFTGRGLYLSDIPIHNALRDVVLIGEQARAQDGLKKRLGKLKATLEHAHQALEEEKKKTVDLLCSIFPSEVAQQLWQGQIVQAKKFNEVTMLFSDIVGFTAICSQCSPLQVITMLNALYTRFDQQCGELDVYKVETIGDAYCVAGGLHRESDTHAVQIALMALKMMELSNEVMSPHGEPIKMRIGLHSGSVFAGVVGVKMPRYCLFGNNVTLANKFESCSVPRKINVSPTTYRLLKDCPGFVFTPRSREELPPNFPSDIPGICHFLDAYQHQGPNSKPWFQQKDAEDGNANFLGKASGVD
T1 sequence (P20595 1-619): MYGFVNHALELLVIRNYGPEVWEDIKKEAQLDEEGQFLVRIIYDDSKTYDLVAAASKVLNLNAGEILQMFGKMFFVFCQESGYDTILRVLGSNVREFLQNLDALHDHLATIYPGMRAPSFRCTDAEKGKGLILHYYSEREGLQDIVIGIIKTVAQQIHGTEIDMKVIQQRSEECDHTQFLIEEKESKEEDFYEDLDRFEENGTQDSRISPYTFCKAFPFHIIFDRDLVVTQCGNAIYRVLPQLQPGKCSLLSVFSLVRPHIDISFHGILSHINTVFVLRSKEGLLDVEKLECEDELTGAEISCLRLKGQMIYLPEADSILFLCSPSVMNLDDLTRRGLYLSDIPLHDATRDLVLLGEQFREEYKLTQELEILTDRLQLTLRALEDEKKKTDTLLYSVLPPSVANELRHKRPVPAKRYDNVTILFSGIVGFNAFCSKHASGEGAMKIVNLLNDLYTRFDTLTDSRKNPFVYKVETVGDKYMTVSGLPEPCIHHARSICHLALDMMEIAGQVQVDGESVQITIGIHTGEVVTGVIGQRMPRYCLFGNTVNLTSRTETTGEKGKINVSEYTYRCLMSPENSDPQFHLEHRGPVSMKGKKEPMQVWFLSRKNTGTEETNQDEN
The assay can be described thus: Effect on a recombinant guanylate cyclase reporter cell line (B-2). Type of assay: cell-based. To be noted: MEC = minimum effective concentration, in some cases mean values for individual determinations. How it is done:
B-2. Effect on a Recombinant Guanylate Cyclase Reporter Cell Line
The cellular activity of the compounds according to the invention is determined using a recombinant guanylate cyclase reporter cell line, as described in F. Wunder et al., Anal. Biochem. 339, 104-112 (2005).
Representative MEC values (MEC=minimum effective concentration) for the compounds of the invention are shown in Table 1 below (in some cases as mean values for individual determinations): […]

The target in assay [2] is T2, human phosphodiesterase 5 (PDE 5) (Homo sapiens, UniProt O76074).
T2 construct: PDE 5 preparations are obtained from human platelets by disruption; from tissue; host or cells: human platelets (Mono Q ion exchange fractions with PDE 5 activity)
The assay can be described thus: Inhibition of human phosphodiesterase 5 (PDE 5) (B-3). Type of assay: biochemical. To be noted: PDE 5 preparation from human platelets; [8-3H] cGMP substrate, SPA; in some cases means of individual determinations. As to the method:
B-3. Inhibition of Human Phosphodiesterase 5 (PDE 5)
PDE 5 preparations are obtained from human platelets by disruption (Microfluidizer®, 800 bar, 3 passes), followed by centrifugation (75 000 g, 60 min, 4° C.) and ion exchange chromatography of the supernatant on a Mono Q 10/10 column (linear sodium chloride gradient, elution with a 0.2-0.3M solution of sodium chloride in buffer (20 mM Hepes pH 7.2, 2 mM magnesium chloride). Fractions having PDE 5 activity are combined (PDE 5 preparation) and stored at −80° C.
To determine their in vitro action on human PDE 5, the test substances are dissolved in 100% DMSO and serially diluted. Typically, dilution series (1:3) from 200 μM to 0.091 μM are prepared (resulting final concentrations in the test: 4 μM to 0.0018 μM). In each case 2 μl of the diluted substance solutions are placed into the wells of microtitre plates (Isoplate-96/200 W; Perkin Elmer). Subsequently, 50 μl of a dilution of the above-described PDE 5 preparation are added. The dilution of the PDE 5 preparation is chosen such that during the later incubation less than 70% of the substrate are converted (typical dilution: 1:100; dilution buffer: 50 mM tris/hydrochloric acid pH 7.5, 8.3 mM magnesium chloride, 1.7 mM EDTA, 0.2% BSA). The substrate, [8-^3H] cyclic guanosine-3′,5′-monophosphate (1 μCi/μl; Perkin Elmer), is diluted 1:2000 with assay buffer (50 mM tris/hydrochloric acid pH 7.5, 8.3 mM magnesium chloride, 1.7 mM EDTA) to a concentration of 0.0005 μCi/μl. By addition of 50 μl (0.025 μCi) of the diluted substrate, the enzyme reaction is finally started. The test mixtures are incubated at room temperature for 60 min and the reaction is stopped by adding 25 μl of a suspension of 18 mg/ml yttrium scintillation proximity beads in water (phosphodiesterase beads for SPA assays, RPNQ 0150, Perkin Elmer). The microtitre plates are sealed with a film and left to stand at room temperature for 60 min. Subsequently, the plates are analysed for 30 s per well in a Microbeta scintillation counter (Perkin Elmer). IC50 values are determined using the graphic plot of the substance concentration against percentage PDE 5 inhibition.

Each structure is given as a SMILES string. Structures can show the parent of a compound that is named as a salt.

In patent US9688699B2, “3-(pyrimidine-2-yl)imidazo[1,2-a]pyridines” (Bayer Pharma Aktiengesellschaft, priority 2014, dated 2017) one finds MEC and IC50 data, which are given here for 13 compounds.

Regarding `Cc1nc2c(OCc3c(F)ccc(F)c3F)cccn2c1-c1nc2c(c(N3CCC(CC(=O)O)CC3)n1)C(C)(C)C(=O)N2` [Example 38, [1-(5,5-dimethyl-2-{2-methyl-8-[(2,3,6-trifluorobenzyl)oxy]imidazo[1,2-a]pyridin-3-yl}-6-oxo-6,7-dihydro-5H-pyrrolo[2,3-d]pyrimidin-4-yl)piperidin-4-yl]acetic acid], in assay [1], the MEC worked out at 3 µM. Moreover, the IC50 in assay [2] is 36 nM.

For the compound `Cc1nc2c(OCc3c(F)cccc3F)cccn2c1-c1nc(Cl)c2c(n1)NC(=O)C2(C)C` [Example 4, 4-Chloro-2-{8-[(2,6-difluorobenzyl)oxy]-2-methylimidazo[1,2-a]pyridin-3-yl}-5,5-dimethyl-5,7-dihydro-6H-pyrrolo[2,3-d]pyrimidin-6-one], in assay [1], the MEC amounted to 3 µM. The same compound gave an IC50 in assay [2] of 110 nM.

Regarding `Cc1nc2c(OCc3c(F)ccc(F)c3F)cccn2c1-c1ncc2c(n1)NC(=O)C2(C)C` [Example 75, 5,5-Dimethyl-2-{2-methyl-8-[(2,3,6-trifluorobenzyl)oxy]imidazo[1,2-a]pyridin-3-yl}-5,7-dihydro-6H-pyrrolo[2,3-d]pyrimidin-6-one formate], in assay [1], the MEC worked out at 10 µM. In assay [2], this compound showed an IC50 of 370 nM.

With `Cc1nc2c(OCc3c(F)ccc(F)c3F)cccn2c1-c1nc2c(c(C(=O)N3CCN(C)CC3)n1)C(C)(C)C(=O)N2` [Example 60, 5,5-dimethyl-4-[(4-methylpiperazin-1-yl)carbonyl]-2-{2-methyl-8-[(2,3,6-trifluorobenzyl)oxy]imidazo[1,2-a]pyridin-3-yl}-5,7-dihydro-6H-pyrrolo[2,3-d]pyrimidin-6-one trifluoroacetate], the MEC in assay [1] is 3 µM. The same compound gave a concentration for half-maximal inhibition (IC50) in assay [2] of 420 nM.

Consider `Cc1nc2c(OCc3c(F)cccc3F)cccn2c1-c1nc(NCCO)c2c(n1)NC(=O)C2(C)C` [Example 24, 2-{8-[(2,6-difluorobenzyl)oxy]-2-methylimidazo[1,2-a]pyridin-3-yl}-4-[(2-hydroxyethyl)amino]-5,5-dimethyl-5,7-dihydro-6H-pyrrolo[2,3-d]pyrimidin-6-one trifluoroacetate], for which the MEC in assay [1] came out at 0.3 µM. It took 1.3 nM to reach half-maximal inhibition in assay [2] (IC50).

With `Cc1nc2c(OCc3c(F)cccc3F)cccn2c1-c1nc2c(c(N3C[C@H]4C[C@@]4(N)C3)n1)C(C)(C)C(=O)N2` (relative stereo) [Example 32, rac-rel-4-[(1R,5S)-1-amino-3-azabicyclo[3.1.0]hex-3-yl]-2-{8-[(2,6-difluorobenzyl)oxy]-2-methylimidazo[1,2-a]pyridin-3-yl}-5,5-dimethyl-5,7-dihydro-6H-pyrrolo[2,3-d]pyrimidin-6-one formate], in assay [1], the MEC amounted to 1 µM. The midpoint of inhibition in assay [2], the IC50, lay at 11 nM.

`Cc1nc2c(OCc3c(F)cccc3F)cccn2c1-c1nc(NC[C@@H](O)CO)c2c(n1)NC(=O)C2(C)C` [Example 23, 2-{8-[(2,6-difluorobenzyl)oxy]-2-methylimidazo[1,2-a]pyridin-3-yl}-4-{[(2R)-2,3-dihydroxypropyl]amino}-5,5-dimethyl-5,7-dihydro-6H-pyrrolo[2,3-d]pyrimidin-6-one]: the MEC in assay [1] came out at 3 µM. The IC50 in assay [2] was 8 nM.

As to `Cc1nc2c(OCc3c(F)cccc3F)cccn2c1-c1nc(NCC(C)(N)C(F)(F)F)c2c(n1)NC(=O)C2(C)C` (racemic) [Example 40, rac-4-[(2-Amino-3,3,3-trifluoro-2-methylpropyl)amino]-2-{8-[(2,6-difluorobenzyl)oxy]-2-methylimidazo[1,2-a]pyridin-3-yl}-5,5-dimethyl-5,7-dihydro-6H-pyrrolo[2,3-d]pyrimidin-6-one], in assay [1], the MEC amounted to 3 µM. For the same compound, half-maximal inhibition in assay [2] (IC50) required 14 nM.

As to `Cc1nc2c(OCc3c(F)cccc3F)cccn2c1-c1nc2c(c(NC3CCC(C)(O)CC3)n1)C(C)(C)C(=O)N2` (single isomer, unassigned; diastereomer 1) [Example 28, 2-{8-[(2,6-difluorobenzyl)oxy]-2-methylimidazo[1,2-a]pyridin-3-yl)-4-[(4-hydroxy-4-methylcyclohexyl)amino]-5,5-dimethyl-5,7-dihydro-6H-pyrrolo[2,3-d]pyrimidin-6-one formate (Diastereomer 1)], the MEC in assay [1] came to 0.3 µM. This compound also gave an IC50 in assay [2] of 0.3 nM.

For the compound `Cc1nc2c(OCc3c(F)cccc3F)cccn2c1-c1nc(I)c2c(n1)NC(=O)C2(C)C(F)(F)F` (racemic) [Example 7, rac-2-{8-[(2,6-Difluorobenzyl)oxy]-2-methylimidazo[1,2-a]pyridin-3-yl}-4-iodo-5-methyl-5-(trifluoromethyl)-5,7-dihydro-6H-pyrrolo[2,3-d]pyrimidin-6-one trifluoroacetate (racemate)], in assay [1], the MEC was 2 µM. Moreover, the midpoint of inhibition in assay [2], the IC50, lay at 590 nM.

As for `Cc1nc2c(OCc3c(F)cccc3F)cccn2c1-c1nc(NCC2(O)CC2)c2c(n1)NC(=O)C2(C)C` [Example 17, 2-{8-[(2,6-difluorobenzyl)oxy]-2-methylimidazo[1,2-a]pyridin-3-yl}-4-{[(1-hydroxycyclopropyl)methyl]amino}-5,5-dimethyl-5,7-dihydro-6H-pyrrolo[2,3-d]pyrimidin-6-one], the MEC in assay [1] was found to be 0.3 µM. Also, the IC50 in assay [2] was found to be 4.6 nM.

As to `Cc1nc2c(OCc3c(F)cccc3F)cccn2c1-c1nc2c(c(NC3CCC(C)(O)CC3)n1)C(C)(C)C(=O)N2` (single isomer, unassigned; diastereomer 2) [Example 29, 2-{8-[(2,6-difluorobenzyl)oxy]-2-methylimidazo[1,2-a]pyridin-3-yl}-4-[(4-hydroxy-4-methylcyclohexyl)amino]-5,5-dimethyl-5,7-dihydro-6H-pyrrolo[2,3-d]pyrimidin-6-one formate (Diastereomer 2)], the MEC in assay [1] worked out at 0.3 µM. Besides, in assay [2], 0.9 nM corresponded to half-maximal inhibition (IC50).

For `Cc1nc2c(OCc3c(F)cccc3F)cccn2c1-c1nc(I)c2c(n1)NC(=O)C2(C)C` [Example 2, 2-{8-[(2,6-Difluorobenzyl)oxy]-2-methylimidazo[1,2-a]pyridin-3-yl}-4-iodo-5,5-dimethyl-5,7-dihydro-6H-pyrrolo[2,3-d]pyrimidin-6-one], in assay [1], the MEC turned out to be 5.3 µM. Also, the midpoint of inhibition in assay [2], the IC50, lay at 300 nM.

One may read the IC50 as the concentration that inhibits the measured activity by half. Read a low IC50 as inhibition by little substance.
